Assay results from ChEMBL document CHEMBL5154700, “Discovery of Gut-Restricted Small-Molecule Inhibitors of Intestinal Sodium-Dependent Phosphate Transport Protein 2b (NaPi2b) for the Treatment of Hyperphosphatemia” (J Med Chem, 2022).
Converted amounts (≈) assume the structure as drawn.

Assays:
[1] = molecular target: T1, Sodium-dependent phosphate transport protein 2B (Homo sapiens, UniProt O95436); test: Inhibition of human NaPi2b expressed in KJMGER8 cells assessed as reduction in H2[33P]O4 uptake incubated for 60 mins by TopCount scintillation counting method; format: cell-based
T1 sequence (O95436 whole entry): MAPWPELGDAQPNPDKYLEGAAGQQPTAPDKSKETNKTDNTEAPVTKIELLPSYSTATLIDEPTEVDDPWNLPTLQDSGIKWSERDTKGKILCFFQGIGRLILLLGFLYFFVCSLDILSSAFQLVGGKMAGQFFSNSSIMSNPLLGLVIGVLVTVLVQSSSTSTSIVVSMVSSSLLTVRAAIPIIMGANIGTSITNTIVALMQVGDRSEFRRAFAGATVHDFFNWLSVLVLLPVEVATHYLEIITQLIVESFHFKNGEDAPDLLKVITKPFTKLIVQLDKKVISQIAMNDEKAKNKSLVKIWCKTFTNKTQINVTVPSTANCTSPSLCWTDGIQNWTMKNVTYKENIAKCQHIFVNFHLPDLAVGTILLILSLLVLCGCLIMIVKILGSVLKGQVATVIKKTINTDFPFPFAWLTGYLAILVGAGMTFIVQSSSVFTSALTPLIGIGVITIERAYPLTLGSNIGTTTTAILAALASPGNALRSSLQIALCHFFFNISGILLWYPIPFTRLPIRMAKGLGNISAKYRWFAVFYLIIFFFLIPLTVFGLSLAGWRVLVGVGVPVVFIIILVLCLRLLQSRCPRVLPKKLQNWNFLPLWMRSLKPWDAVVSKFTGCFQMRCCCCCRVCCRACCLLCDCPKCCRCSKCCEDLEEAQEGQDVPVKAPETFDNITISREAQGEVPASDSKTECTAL

[2] = Inhibition of phosphate uptake in CRL:CD(SD) rat small intestine in at 0.1 mg treated through intrajejunal after 30 mins by In-situ closed-loop method; conditions: in vivo, other, 0.5 h
[3] = Solubility of compound in phosphate buffer at pH 7.4; format: physicochemical
[4] = AUC(0 to infinity) in CRL:CD(SD) rat at 30 mg/kg, po measured after 7 hrs by LC-MS/MS analysis; format: ADME, organism-based; design: dose 30 mg/kg, time 7 hrs, route po; conditions: in vivo
[5] = AUC (0 to t) in CRL:CD(SD) rat at 30 mg/kg, po measured after 7 hrs by LC-MS/MS analysis; format: ADME, organism-based; design: time 7 hrs, dose 30 mg/kg, route po; conditions: in vivo
[6] = Passive permeability of the compound across apical to basolateral at 100 uM incubated for 5 hrs by PAMPA assay; format: ADME; conditions: read-out: permeability
[7] = Half life in CRL:CD(SD) rat at 30 mg/kg, po measured after 7 hrs by LC-MS/MS analysis; format: ADME, organism-based; conditions: in vivo
[8] = Oral bioavailability in CRL:CD(SD) rat at 30 mg/kg measured after 7 hrs by LC-MS/MS analysis; format: ADME, organism-based; conditions: in vivo
[9] = Drug concentration in CRL:CD(SD) rat plasma at 30 mg/kg, po measured after 7 hrs by LC-MS/MS analysis; format: ADME, organism-based
[10] = Mean residence time in CRL:CD(SD) rat at 30 mg/kg, po measured after 7 hrs by LC-MS/MS analysis; format: ADME, organism-based; conditions: in vivo
[11] = Drug concentration in CRL:CD(SD) rat lung at 30 mg/kg, po measured after 7 hrs by LC-MS/MS analysis; format: ADME, organism-based; conditions: read-out: Ct
[12] = Cmax in CRL:CD(SD) rat at 30 mg/kg, po measured after 7 hrs by LC-MS/MS analysis; format: ADME, organism-based; design: dose 30 mg/kg, time 7 hrs, route po; conditions: in vivo
[13] = Ratio of drug level in lung to plasma in CRL:CD(SD) rat at 30 mg/kg, po measured after 7 hrs by LC-MS/MS; format: ADME, organism-based; conditions: lung and plasma
[14] = Cmax in CRL:CD(SD) rat at 10 mg/kg, po by LC-MS/MS analysis; format: ADME, organism-based; design: dose 10 mg/kg, route po; conditions: in vivo
[15] = Drug concentration in CRL:CD(SD) rat plasma at 30 mg/kg, po measured after 6 hrs by LC-MS/MS analysis; format: ADME, organism-based
[16] = AUC (0 to t) in CRL:CD(SD) rat at 10 mg/kg, po by LC-MS/MS analysis; format: ADME, organism-based; design: dose 10 mg/kg, route po; conditions: in vivo
[17] = Oral bioavailability in CRL:CD(SD) rat at 10 mg/kg by LC-MS/MS analysis; format: ADME, organism-based; conditions: in vivo
[18] = Drug concentration in CRL:CD(SD) rat lung at 30 mg/kg, po measured after 6 hrs by LC-MS/MS analysis; format: ADME, organism-based; conditions: read-out: Ct

| SMILES | IC50 [1] | solubility [3] | Papp at 5 h, 100 µM [6] | Kp at 7 h [13] | other results |
| --- | --- | --- | --- | --- | --- |
| COCCN(CCOCCOCCOCCOCCOCCOCc1cccc(C(=O)Nc2sc3c(c2C(=O)N/N=C/c2ccc(Cl)c(C(F)(F)F)c2)CCC(C)(C)C3)c1)CC(=O)O | 64 nM | 122 µM (≈ 115 µg/mL) | < 0.025 ×10⁻⁶ cm/s |  | inhibition (INH) [2]: 17%; AUC(0-inf) [4]: 2.62 ng·h/mL; AUC(0-t) at 7 h [5]: 0.665 ng·h/mL; half-life [7]: 3.53 h; bioavailability [8]: 0.1%; concentration at 7 h [9]: < 0.3 ng/mL; MRT [10]: 5.25 h; concentration at 7 h [11]: < 1.5 ng/g; Cmax [12]: 0.444 ng/mL |
| CC1(C)CCc2c(sc(NC(=O)c3cccc(OCCOCCOCCOC[C@H](O)CN(CCO)CCO)c3)c2C(=O)N/N=C/c2ccc(Cl)c(C(F)(F)F)c2)C1 | 83 nM | 76 µM (≈ 64.1 µg/mL) |  | 44 |  |
| CCN(CC)CCOCCOCCOc1cccc(C(=O)Nc2sc3c(c2C(=O)N/N=C/c2ccc(Cl)c(C(F)(F)F)c2)CCC(C)(C)C3)c1 | 40 nM | 55 µM (≈ 40.6 µg/mL) | < 0.025 ×10⁻⁶ cm/s | 130 |  |
| CCN(CC)C[C@@H](O)COCCOCCOCCOc1cccc(C(=O)Nc2sc3c(c2C(=O)N/N=C/c2ccc(Cl)c(C(F)(F)F)c2)CCC(C)(C)C3)c1 |  |  |  | 428 |  |
| CCN(CC)CCCN(C)Cc1cccc(C(=O)Nc2sc3c(c2C(=O)N/N=C/c2ccc(Cl)c(C(F)(F)F)c2)CCN(C2CC2)C3)c1 |  |  |  |  | Cmax [14]: 3.59 ng/mL; concentration at 6 h [15]: 1.86 ng/mL; AUC(0-t) [16]: 10.4 ng·h/mL; bioavailability [17]: 0.96%; concentration at 6 h [18]: 6350 ng/g |
| CCN(CC)CCOCCOCCOc1cccc(C(=O)Nc2sc3c(c2C(=O)N/N=C/c2ccc(Cl)c(C(F)(F)F)c2)CCN(C2CC2)C3)c1 | 315 nM | 82 µM (≈ 61.5 µg/mL) | 0.23 ×10⁻⁶ cm/s |  |  |
| O=C(Nc1sc2c(c1C(=O)N/N=C/c1ccc(Cl)c(C(F)(F)F)c1)CCCC2)c1cccc(CN2CCC(O)CC2)c1 | 87 nM | 0.1 µM (≈ 0.0619 µg/mL) |  |  |  |
